The text below walks through data of patent US10517889B2, “Modulators of SMAD7 expression” (Ionis Pharmaceuticals, Inc., priority 2017, dated 2019).

The test system of the data set is human SMAD7 mRNA. The experiment in a line: Antisense inhibition of human SMAD7 mRNA expression in Hep3B cells by 3-10-3 cEt gapmers, 10,000 nM, electroporation (Example 2). Format: cell-based. As to conditions: approximately 24 hours. As for the experimental part: Antisense oligonucleotides were designed to target human SMAD7 mRNA and were tested for their effects on SMAD7 mRNA expression in vitro. The antisense oligonucleotides were tested in a series of experiments that had similar culture conditions, as described below. ION 771576, described in the studies above and which is a 5-10-5 MOE gapmer, was also included in these assays. Cultured Hep3B cells at a density of 20,000 cells per well were transfected using electroporation with 10,000 nM antisense oligonucleotide. After a treatment period of approximately 24 hours, RNA was isolated from the cells and SMAD7 mRNA levels were measured by quantitative real-time PCR. Primer probe set RTS5062 was used to measure human SMAD7 mRNA levels. SMAD7 mRNA levels were adjusted according to total RNA content, as measured by RIBOGREEN®. Results are presented as percent inhibition of SMAD7 mRNA expression, relative to untreated control cells.
The newly designed chimeric antisense oligonucleotides in the Tables below were designed as 3-10-3 cEt gapmers. The gapmers are 16 nucleosides in length, wherein the central gap segment comprises often 2′-deoxynucleosides and is flanked by wing segments on the 5′ direction and the 3′ direction comprising three nucleosides each. Each nucleoside in the 5′ wing segment and each nucleoside in the 3′ wing segment has a cEt sugar modification. The internucleoside linkages throughout each gapmer are phosphorothioate (P═S) linkages. All cytosine residues throughout each gapmer are 5-methylcytosines.
“Start site” indicates the 5′-most nucleoside to which the gapmer is targeted in the human gene sequence. “Stop site” indicates the 3′-most nucleoside to which the gapmer is targeted human gene sequence. […] Some of the oligonucleotides presented were complementary to SMAD7 mRNA sequences RefSeqNo. NM_001190821.1 (designated herein as SEQ ID NO: 3) or RefSeqNo. NM_001190822.1 (designated herein as SEQ ID NO: 4), and are presented in a separate table shown below.

[1] abbreviates: SMAD7 mRNA, Hep3B cells, electroporation with 10,000 nM antisense oligonucleotide, primer probe set RTS5062, relative to untreated control cells.
The mark [2] stands for this setting: Hep3B cells, electroporation with 10,000 nM antisense oligonucleotide, SMAD7 mRNA by RT-PCR (RTS5062), relative to untreated control cells.
Where [3] appears, read: Hep3B cells, electroporation with 10,000 nM antisense oligonucleotide, primer probe set RTS5062, relative to untreated control cells.
Setting [4] is: Hep3B cells, 10,000 nM antisense oligonucleotide, electroporation, RT-PCR primer probe set RTS5062, relative to untreated control cells.
[5] abbreviates: Hep3B cells, electroporation with 10,000 nM antisense oligonucleotide, RTS5062, percent inhibition of SMAD7 mRNA relative to untreated control cells.
[6] abbreviates: SMAD7 mRNA, Hep3B cells, 10,000 nM antisense oligonucleotide, electroporation, primer probe set RTS5062, relative to untreated control cells.

Strand notation (5' to 3'): a small letter for the sugar, then the base; units joined by * are phosphorothioate-linked, units joined directly phosphodiester-linked; [ ] holds rarer units or linkages, { } end groups; capitals alone tell only the bases. k = constrained ethyl (cEt); [5mC] = 5-methylcytosine; d = 2'-deoxy (DNA)

One may read the % Inhibition as the share of the control response that was lost under treatment.

With “829878 (antisense kG*kA*kG*dT*d[5mC]*d[5mC]*dG*dG*dG*dT*dT*dG*dT*k[5mC]*k[5mC]*kA) [compound 829878]”, under setting [1], the “% Inhibition” value amounted to 18%.
On the same count and under the same terms, next, “829950 (kT*k[5mC]*k[5mC]*dG*dG*dG*d[5mC]*dA*dG*d[5mC]*d[5mC]*dA*dG*kT*kT*kA; antisense) [compound 829950]”: 43%; “829929 (kA*k[5mC]*k[5mC]*dA*dA*dT*d[5mC]*dT*dT*dG*dT*dG*dT*kT*kT*kA; antisense) [compound 829929]”: 19%.
For “790515 (k[5mC]*kG*kT*d[5mC]*dA*dG*d[5mC]*dT*dG*dG*dA*dT*dG*k[5mC]*k[5mC]*kG; antisense) [compound 790515]”, the “% Inhibition” value under setting [2] was 26%.
Take “799339 (kG*kA*kT*dA*d[5mC]*d[5mC]*d[5mC]*dA*dG*dT*dT*d[5mC]*dG*kG*k[5mC]*k[5mC]; antisense) [compound 799339]”: the “% inhibition of SMAD7 mRNA expression” value under setting [3] is 18%.
In the case of “829957 (k[5mC]*kA*k[5mC]*d[5mC]*dT*dT*dG*dT*d[5mC]*dA*d[5mC]*d[5mC]*d[5mC]*kG*kT*k[5mC]; antisense) [compound 829957]”, the “% Inhibition” value under setting [1] is listed as 41%.
In the case of “799254 (antisense kA*kA*kA*d[5mC]*dT*d[5mC]*d[5mC]*dA*dA*dA*dG*dG*dT*kG*k[5mC]*kG) [compound 799254]”, the “% Inhibition” value under setting [2] stood at 11%.
Turning to “800018 (kA*kA*kA*dA*d[5mC]*dT*d[5mC]*dA*d[5mC]*dA*dG*dT*d[5mC]*k[5mC]*kT*kT; antisense) [compound 800018]”, the “% Inhibition” value under setting [4] is listed as 51%.
As for “772565 (antisense kA*kA*kT*dG*d[5mC]*d[5mC]*dT*dG*dA*dG*dA*dT*d[5mC]*k[5mC]*kG*kG) [compound 772565]”, the “% Inhibition” value under setting [2] was found to be 64%.
With “790680 (kG*kG*kT*dG*dA*dG*dT*dA*dA*d[5mC]*d[5mC]*dA*dG*k[5mC]*kT*kG; antisense) [compound 790680]”, under setting [2], the “% Inhibition” value is given as 56%.
With “800096 (antisense kT*kG*kG*dA*dG*dT*dT*dA*d[5mC]*dA*dG*dA*dT*k[5mC]*kT*kT) [compound 800096]”, the “% Inhibition” value under setting [4] is listed as 32%.
Take “799263 (antisense kT*k[5mC]*k[5mC]*dA*dA*d[5mC]*dT*d[5mC]*dT*d[5mC]*dT*dT*dT*kG*k[5mC]*k[5mC]) [compound 799263]”: the “% inhibition of SMAD7 mRNA expression” value under setting [3] is given as 0%.
Regarding “829912 (antisense kA*kA*k[5mC]*dG*dA*d[5mC]*d[5mC]*dA*dA*dA*dG*dA*dG*kT*kT*kT) [compound 829912]”, the “% Inhibition” value under setting [1] is listed as 24%.
For the substance “829841 (kT*kG*kG*dA*d[5mC]*dA*d[5mC]*dA*dG*dT*dA*dG*dA*kG*k[5mC]*k[5mC]; antisense) [compound 829841]”, the “% Inhibition” value under setting [1] came to 50%.
Consider “799328 (kA*kT*kG*d[5mC]*dA*d[5mC]*dA*d[5mC]*dT*d[5mC]*dT*d[5mC]*d[5mC]*k[5mC]*kA*kG; antisense) [compound 799328]”, for which the “% Inhibition” value under setting [2] is given as 0%.
Take “799618 (kA*kA*k[5mC]*dA*dA*dA*dG*d[5mC]*dT*dG*d[5mC]*dA*dA*kT*kG*k[5mC]; antisense) [compound 799618]”: the “% inhibition of SMAD7 mRNA expression” value (Hep3B cells, electroporation, 10,000 nM antisense oligonucleotide, RTS5062, relative to untreated control cells) is 0%.
Turning to “799702 (antisense k[5mC]*kA*kT*d[5mC]*dA*d[5mC]*d[5mC]*dA*d[5mC]*dT*d[5mC]*dT*dA*k[5mC]*kA*kG) [compound 799702]”, the “% Inhibition” value under setting [5] is listed as 43%.
Consider “799384 (antisense kG*kG*k[5mC]*dA*d[5mC]*dA*dA*dA*dA*dA*d[5mC]*d[5mC]*dA*kA*kG*kG) [compound 799384]”, for which the “% inhibition of SMAD7 mRNA expression” value under setting [3] is recorded as 40%.
In the case of “829741 (antisense k[5mC]*k[5mC]*kG*dG*dA*d[5mC]*dG*dA*dG*d[5mC]*dG*d[5mC]*dA*kG*kA*kT) [compound 829741]”, under setting [6], the “% Inhibition” value was 32%.
Consider “799985 (kA*kA*k[5mC]*dA*dT*d[5mC]*dA*d[5mC]*d[5mC]*dA*d[5mC]*dG*d[5mC]*k[5mC]*kT*k[5mC]; antisense) [compound 799985]”, for which the “% Inhibition” value under setting [2] is reported as 53%.
In the case of “798701 (antisense k[5mC]*kT*kT*d[5mC]*dT*d[5mC]*d[5mC]*d[5mC]*d[5mC]*dG*d[5mC]*dA*dG*k[5mC]*kT*k[5mC]) [compound 798701]”, under setting [2], the “% Inhibition” value was 23%.
“829772 (antisense kA*kG*kG*dA*d[5mC]*dG*dA*dG*dG*dG*d[5mC]*dG*dG*k[5mC]*kT*kG) [compound 829772]”: the “% Inhibition” value under setting [6] worked out at 52%.
For “800075 (antisense kT*kA*kA*dT*dT*dT*dT*d[5mC]*d[5mC]*dT*d[5mC]*dA*dA*k[5mC]*kA*kG) [compound 800075]”, the “% Inhibition” value under setting [4] amounted to 55%.
On to “798950 (antisense k[5mC]*kA*kA*dA*dG*dA*dG*d[5mC]*dG*dA*dA*dA*d[5mC]*kA*kA*kA) [compound 798950]”, for which the “% inhibition of SMAD7 mRNA expression” value under setting [3] is recorded as 0%.
“799670 (antisense kT*k[5mC]*kT*dG*dA*dG*dA*d[5mC]*dT*dA*dT*dG*dA*k[5mC]*kA*kG) [compound 799670]”: the “% Inhibition” value under setting [5] is 51%.
Take “798903 (kA*kA*kG*dA*dT*dG*dA*d[5mC]*d[5mC]*dT*d[5mC]*dT*dA*kG*k[5mC]*k[5mC]; antisense) [compound 798903]”: the “% Inhibition” value under setting [2] was determined as 48%.
For “830022 (antisense kG*kG*k[5mC]*dT*dG*d[5mC]*dA*dG*dA*dG*dT*dA*dT*kG*kG*kG) [compound 830022]”, under setting [2], the “% Inhibition” value is 59%.
On to “799131 (antisense k[5mC]*kA*kT*dG*dT*d[5mC]*d[5mC]*d[5mC]*dT*d[5mC]*d[5mC]*d[5mC]*dA*kG*kG*kG) [compound 799131]”, for which the “% inhibition of SMAD7 mRNA expression” value under setting [3] came to 6%.
For “799986 (kA*kA*kA*d[5mC]*dA*dT*d[5mC]*dA*d[5mC]*d[5mC]*dA*d[5mC]*dG*k[5mC]*k[5mC]*kT; antisense) [compound 799986]”, the “% Inhibition” value under setting [2] turned out to be 44%.
Take “772623 (kA*kG*kT*d[5mC]*d[5mC]*dG*dG*dG*dT*dT*dG*dT*d[5mC]*k[5mC]*kA*kG; antisense) [compound 772623]”: under setting [6], the “% Inhibition” value turned out to be 42%.
Still for that read-out and setting: next, “800786 (antisense kG*k[5mC]*kA*d[5mC]*d[5mC]*dA*dG*dT*dG*dT*dG*dA*d[5mC]*k[5mC]*kG*kA) [compound 800786]”: 0%.
On to “830035 (antisense kA*kT*kT*dG*dG*d[5mC]*dT*dG*dA*dT*d[5mC]*dT*dG*kG*kA*kG) [compound 830035]”, for which the “% Inhibition” value under setting [2] was found to be 48%.
Regarding “799310 (antisense kT*kA*kA*dG*d[5mC]*dA*d[5mC]*dG*d[5mC]*dT*d[5mC]*dT*dA*kA*kA*k[5mC]) [compound 799310]”, the “% Inhibition” value under setting [5] is on record as 18%.
For “799629 (kT*kA*k[5mC]*dA*d[5mC]*dA*d[5mC]*dA*d[5mC]*dA*dA*dG*d[5mC]*kT*kT*kG; antisense) [compound 799629]”, the “% Inhibition” value under setting [5] came out at 24%.
The same measure, in the same setting: the value for “799724 (antisense kA*kA*k[5mC]*dT*dT*dG*dG*dG*d[5mC]*dA*dA*dG*dG*kA*k[5mC]*kA) [compound 799724]” was 24%.
As for “798692 (antisense kG*kG*kG*d[5mC]*dG*d[5mC]*dA*d[5mC]*dG*dG*d[5mC]*dT*d[5mC]*k[5mC]*kT*k[5mC]) [compound 798692]”, the “% inhibition of SMAD7 mRNA expression” value under setting [3] was 48%.
For the substance “798839 (kG*kT*kT*dG*dT*d[5mC]*d[5mC]*dG*dA*dA*dT*dT*dG*kA*kG*k[5mC]; antisense) [compound 798839]”, the “% Inhibition” value under setting [4] was 47%.
Turning to “798790 (k[5mC]*kG*kG*dG*dT*dA*dT*d[5mC]*dT*dG*dG*dA*dG*kT*kA*kA; antisense) [compound 798790]”, under setting [3], the “% inhibition of SMAD7 mRNA expression” value is 49%.
“800038 (kT*kG*k[5mC]*dT*d[5mC]*d[5mC]*dT*d[5mC]*d[5mC]*d[5mC]*dT*d[5mC]*dG*k[5mC]*kT*kG; antisense) [compound 800038]”: the “% Inhibition” value under setting [4] is 2%.
Take “798988 (antisense kT*kG*kA*dA*dA*dT*dG*dA*dT*dG*dA*d[5mC]*d[5mC]*kG*k[5mC]*k[5mC]) [compound 798988]”: the “% inhibition of SMAD7 mRNA expression” value under setting [3] is 69%.
